For the experiment, the system named is Male Syrian hamsters, feed enriched with 0.35% cholesterol. The experiment is described as follows: Hypocholesterolemic activity of carob fiber and statins in vivo. Details: species or system Syrian hamster. Particulars: 28 days, in feed: carob fiber 2.5%, simvastatin 1.5 mg %. The source says:
Determination of the Hypocholesterolemic Activity of Carob Fiber and Statins In Vivo Hamsters are seen as a suitable animal model for propounding the present invention, even if the metabolic processes in hamsters and humans differ slightly. At all events, the two substances tested here in combination each give alone in humans a reducing effect on the serum cholesterol values, in particular on LDL cholesterol. The effect of a combined administration of carob fiber and a statin, here simvastatin, in this model should therefore also give conclusions for humans. Male Syrian hamsters (100-120 g at the start of the study) received feed enriched with 0.35% cholesterol. […] The hamsters were divided into groups of 9 animals and treated with the test substances over a period of 28 days. After the animals were anesthetized, blood was obtained for determining the serum cholesterol values. The serum cholesterol contents were determined after obtaining the plasma from whole blood using a commercially obtained enzyme test kit. The total cholesterol content of the test groups thus determined were compared with the results of a control group which received no test substances.

The text below walks through data of US20060062862A1, “Cholesterol-reducing agent made of dietary fibre and cholesterol-reducing substances” (priority 2002, published 2006).

With `CCC(C)(C)C(=O)O[C@H]1C[C@@H](C)C=C2C=C[C@H](C)[C@H](CC[C@@H]3C[C@@H](O)CC(=O)O3)[C@H]21` [Simvastatin, simvastatin], the “Total cholesterol in blood serum” value (0.35% cholesterol feed, control 7.65) came out at 6.50 mmol/L. For the same molecule, the “Changes from the control in %” value (total serum cholesterol vs control group) turned out to be 15%.
